Like-named read-outs stand apart in the source and are kept apart here.
Key:
Assay type in all cases: in vivo
[1] = test system: GPA (Myzus persicae); assay: Bioassay on green peach aphid (GPA), foliar spray on cabbage seedlings; conditions: 72 h, read-out: % Mortality GPA 200 ppm
Description: Certain molecules disclosed in this document were tested against GPA using procedures described in the following example. In the reporting of the results, the “GPA Rating Table” was used (See Table Section).
Cabbage seedlings grown in 3-inch pots, with 2-3 small (3-5 cm) true leaves, were used as test substrate. The seedlings were infested with 20-50 GPA (wingless adult and nymph stages) one day prior to chemical application. Four pots with individual seedlings were used for each treatment. Test compounds (2 mg) were dissolved in 2 mL of acetone/methanol (1:1) solvent, forming stock solutions of 1000 ppm test compound. […] A hand-held aspirator-type sprayer was used for spraying a solution to both sides of […] leaves until runoff. Reference plants (solvent check) were sprayed with the diluent only containing 20% by volume of acetone/methanol (1:1) solvent. Treated plants were held in a holding room for three days at approximately 25° C. and ambient relative humidity (RH) prior to grading. Evaluation was conducted by counting the number of live aphids per plant under a microscope. […] Corrected % Control=100*(X−Y)/X • where • X=No. of live aphids on solvent check plants and • Y=No. of live aphids on treated plants
The results are indicated in the table entitled “Table 5: Biological Results” (See Table Section).

[2] = test system: CEW (Helicoverpa zea); assay: Bioassay on corn earworm (CEW), 128-well diet tray assay; conditions: 168 h, read-out: % Mortality CEW 50 μg/cm^2
Description: (§1) Certain molecules disclosed in this document were tested against BAW and CEW using procedures described in the following examples. In the reporting of the results, the “BAW & CEW Rating Table” was used (See Table Section).
Bioassays on CEW (Helicoverpa zea)
Bioassays on CEW were conducted using a 128-well diet tray assay. […] Trays were covered with a clear self-adhesive cover and held at 25° C., 14:10 light-dark for five to seven days. Percent mortality was recorded for the larvae in each well; activity in the eight wells was then averaged. The results are indicated in the table entitled “Table 5: Biological Results” (See Table Section).

[3] = test system: BAW (Spodoptera exigua); assay: Bioassay on beet armyworm (BAW), 128-well diet tray assay; conditions: 168 h, read-out: % Mortality BAW 50 μg/cm^2
Description: as §1
Bioassays on BAW (Spodoptera exigua)
Bioassays on BAW were conducted using a 128-well diet tray assay. […] Trays were covered with a clear self-adhesive cover and held at 25° C., 14:10 light-dark for five to seven days. Percent mortality was recorded for the larvae in each well; activity in the eight wells was then averaged. The results are indicated in the table entitled “Table 5: Biological Results” (See Table Section).

[4] = 200 ppm foliar spray on cabbage seedlings, three days, Abbott corrected % control
[5] = 50 μg/cm^2 on artificial diet, second instar larvae, five to seven days, 25° C.

SMILES | mortality at 200 ppm [1, 4] [%] | mortality at 50 µg/cm2 [2, 5] [%] | mortality at 50 µg/cm2 [3, 5] [%] | mortality at 200 ppm ([1]; foliar) [%] | mortality at 50 µg/cm2 [2] [%] | mortality at 50 µg/cm2 [3] [%]
COc1cc(C)c(/N=C(/N/N=C/c2ccc(-c3ncn(-c4ccc(OC(F)(F)F)cc4)n3)cc2)SCC(=O)N2CCNCC2)c(C)c1 [Compound 65C] | 0 to 80 | 50 to 100 | 50 to 100 |  |  | 
Cc1cccc(Cl)c1N1/C(=N/N=C/c2ccc(-c3ncn(-c4ccc(OC(F)(F)F)cc4)n3)cc2)SCCC1C (stereo not shown) [Compound 227C] |  | 50 to 100 | 50 to 100 |  |  | 
FC(F)Oc1ccccc1N1CCCS/C1=N\N=C\c1ccc(-c2ncn(-c3ccc(OC(F)(F)F)cc3)n2)cc1 [Compound 200C] |  | 50 to 100 | 50 to 100 |  |  | 
CC(C)c1ccccc1N1C(=O)CS/C1=N\N=C\c1ccc(-c2ncn(-c3ccc(OC(F)(F)F)cc3)n2)cc1 [Compound 73C] | 0 to 80 | 50 to 100 | 50 to 100 |  |  | 
Cc1cccc(C)c1/N=C(/N/N=C/c1ccc(-c2ncn(-c3ccc(OC(F)(F)F)cc3)n2)cc1)SCOC(=O)CNC(=O)OCc1ccccc1 [Compound 23C] |  |  |  | 0 | 50 to 100 | 50 to 100
C/C(=N\N=C1/SCC(=O)N1c1ccccc1C(C)C)c1ccc(-c2ncn(-c3ccc(OC(F)(F)F)cc3)n2)cc1 [Compound 122C] |  | 50 to 100 | 50 to 100 |  |  | 
COc1cc(C)c(/N=C(/N/N=C/c2ccc(-c3ncn(-c4ccc(OC(F)(F)F)cc4)n3)cc2)SCOC(=O)CNC(=O)OCc2ccccc2)c(C)c1 [Compound 28C] |  |  |  | 0 to 80 | 50 to 100 | 50 to 100
COc1cc(C)c(/N=C(\N/N=C/c2ccc(-c3ncn(-c4ccc(C(F)(F)F)cc4)n3)cc2)SCOC(=O)CNC(=O)OCc2ccccc2)c(C)c1 [Compound 45C] |  |  |  |  | 50 to 100 | 50 to 100
CC1CCS/C(=N\N=C\c2ccc(-c3ncn(-c4ccc(OC(F)(F)F)cc4)n3)cc2)N1c1ccccc1OC(C)(F)F (stereo not shown) [Compound 229C] |  | 50 to 100 | 50 to 100 |  |  | 
Cc1cccc(C)c1/N=C(/N/N=C/c1ccc(-c2ncn(-c3ccc(OC(F)(F)F)cc3)n2)cc1)SCC#C[Si](C)(C)C [Compound 9C] |  |  |  | 0 | 50 to 100 | 50 to 100

Reference: US9107413B2, “Pesticidal compositions and processes related thereto” (priority 2011, dated 2015)
